The values below come from publication PMC9927415, “Tyrosine Kinase Inhibitors Display Potent Activity against Cryptosporidium parvum” (Microbiology Spectrum, 2022).

Assay in all cases: KINOMEscan competitive binding
For experiment [1], the target named is T1, CSNK1D (Homo sapiens, UniProt P48730).
T1 construct: purchased DiscoverX (KINOMEscan)
An excerpt: (§1) The kinases were expressed as fusions to T7 bacteriophage. This is a sensitive, competitive binding assay where test compounds were used to displace immobilized ATP-site binding probe ligands from kinases of interest. The amount of kinase that remained bound to the immobilized probe ligands on the solid support was quantified. Percentage inhibition data were was plotted on kinome trees using the web-based tool KinMap (http://www.kinhub.org/kinmap) ([60]).

Experiment [2] has as its target T2, BIKE (Homo sapiens, UniProt Q9NSY1).
T2 construct: purchased DiscoverX (KINOMEscan)
The conditions noted are these: 10 µM, n=1; kinase BIKE; read-out: Percent inhibition BIKE.
Text: as §1

The target in experiment [3] is T3, PLK1 (Homo sapiens, UniProt P53350).
T3 construct: purchased DiscoverX (KINOMEscan)
T3 sequence (P53350 whole entry): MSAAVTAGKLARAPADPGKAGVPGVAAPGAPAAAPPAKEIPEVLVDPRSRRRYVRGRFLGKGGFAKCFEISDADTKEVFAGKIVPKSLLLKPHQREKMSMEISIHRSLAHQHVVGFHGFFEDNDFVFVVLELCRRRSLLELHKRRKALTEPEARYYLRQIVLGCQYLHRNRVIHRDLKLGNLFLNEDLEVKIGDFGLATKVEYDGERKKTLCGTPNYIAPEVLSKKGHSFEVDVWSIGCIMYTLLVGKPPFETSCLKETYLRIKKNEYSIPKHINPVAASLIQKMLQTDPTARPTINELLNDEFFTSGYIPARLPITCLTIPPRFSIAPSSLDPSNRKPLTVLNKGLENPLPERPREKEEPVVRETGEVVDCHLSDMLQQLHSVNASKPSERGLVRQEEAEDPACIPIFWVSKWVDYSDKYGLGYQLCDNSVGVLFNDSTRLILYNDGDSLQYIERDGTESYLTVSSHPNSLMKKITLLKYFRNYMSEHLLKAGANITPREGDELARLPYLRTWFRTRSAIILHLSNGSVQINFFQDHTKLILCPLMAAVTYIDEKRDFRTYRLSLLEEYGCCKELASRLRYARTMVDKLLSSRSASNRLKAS
To be noted: n=1, read-out: Percent inhibition, PLK1.
Text: as §1

Experiment [4] concerns the target T4, JAK1(JH2) (Homo sapiens, UniProt P23458).
T4 construct: JAK1(JH2); purchased DiscoverX (KINOMEscan)
Text: as §1

Experiment [5] concerns the target T5, CLK2 (Homo sapiens, UniProt P49760).
T5 construct: purchased DiscoverX (KINOMEscan)
Text: as §1

Experiment [6] concerns the target T6, PDGFRα (Homo sapiens, UniProt P16234).
T6 construct: purchased DiscoverX (KINOMEscan)
Text: as §1

Experiment [7] deals with T7, FLT1 (Homo sapiens, UniProt P17948).
T7 construct: purchased DiscoverX (KINOMEscan)
To be noted: 10 µM, n=1; kinase FLT1; read-out: Percent inhibition FLT1.
Text: as §1

For experiment [8], the target named is T8, AAK1 (Homo sapiens, UniProt Q2M2I8).
T8 construct: purchased DiscoverX (KINOMEscan)
T8 sequence (Q2M2I8 whole entry): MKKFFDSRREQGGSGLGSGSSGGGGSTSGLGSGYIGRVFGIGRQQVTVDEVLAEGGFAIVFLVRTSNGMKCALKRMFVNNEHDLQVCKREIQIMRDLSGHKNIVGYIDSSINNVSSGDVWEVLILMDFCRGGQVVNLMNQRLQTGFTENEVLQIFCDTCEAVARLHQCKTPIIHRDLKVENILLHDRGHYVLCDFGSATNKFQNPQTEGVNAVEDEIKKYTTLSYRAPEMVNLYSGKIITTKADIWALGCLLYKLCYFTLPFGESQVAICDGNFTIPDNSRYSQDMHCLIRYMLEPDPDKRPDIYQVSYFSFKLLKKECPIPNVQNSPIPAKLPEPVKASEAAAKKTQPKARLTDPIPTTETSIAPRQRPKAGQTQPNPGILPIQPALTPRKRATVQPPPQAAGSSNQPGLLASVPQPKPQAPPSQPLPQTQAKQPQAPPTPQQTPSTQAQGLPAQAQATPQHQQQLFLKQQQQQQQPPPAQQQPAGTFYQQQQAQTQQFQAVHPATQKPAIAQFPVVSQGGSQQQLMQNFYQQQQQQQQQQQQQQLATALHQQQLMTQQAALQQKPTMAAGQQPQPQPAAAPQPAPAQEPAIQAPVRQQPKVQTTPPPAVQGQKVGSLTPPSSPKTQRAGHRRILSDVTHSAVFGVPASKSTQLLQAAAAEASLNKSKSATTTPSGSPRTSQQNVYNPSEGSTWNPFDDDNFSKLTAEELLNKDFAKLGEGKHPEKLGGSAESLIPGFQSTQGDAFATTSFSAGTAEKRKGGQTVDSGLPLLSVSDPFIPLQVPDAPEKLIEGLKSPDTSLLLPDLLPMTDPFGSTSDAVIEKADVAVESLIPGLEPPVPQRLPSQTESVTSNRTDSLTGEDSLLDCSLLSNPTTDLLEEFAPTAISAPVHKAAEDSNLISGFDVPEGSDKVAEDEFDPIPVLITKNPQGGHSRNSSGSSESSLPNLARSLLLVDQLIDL
The conditions noted are these: 10 µM, n=1; kinase AAK1; read-out: Percent inhibition AAK1.
Text: as §1

In experiment [9] the target is T9, Aurora kinase A (Homo sapiens, UniProt O14965).
T9 construct: purchased DiscoverX (KINOMEscan)
T9 sequence (O14965 1-403): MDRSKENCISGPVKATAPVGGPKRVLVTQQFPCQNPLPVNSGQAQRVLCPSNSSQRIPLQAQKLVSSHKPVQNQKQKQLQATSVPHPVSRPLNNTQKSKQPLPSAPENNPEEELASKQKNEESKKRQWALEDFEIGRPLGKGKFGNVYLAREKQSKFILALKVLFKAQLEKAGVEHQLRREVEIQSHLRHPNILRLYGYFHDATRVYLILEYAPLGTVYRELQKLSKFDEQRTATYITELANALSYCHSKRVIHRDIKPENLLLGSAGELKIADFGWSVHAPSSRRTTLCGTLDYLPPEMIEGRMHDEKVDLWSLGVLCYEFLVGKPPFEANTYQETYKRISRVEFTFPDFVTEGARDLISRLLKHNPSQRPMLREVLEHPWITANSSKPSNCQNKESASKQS
The conditions noted are these: 10 µM, n=1; kinase AURKA; read-out: Percent inhibition AURKA.
Text: as §1

Experiment [10] concerns the target T10, CLK1 (Homo sapiens, UniProt P49759).
T10 construct: purchased DiscoverX (KINOMEscan)
Text: as §1

The target of experiment [11] is T11, AXL (Homo sapiens, UniProt P30530).
T11 construct: purchased DiscoverX (KINOMEscan)
T11 sequence (P30530 26-894): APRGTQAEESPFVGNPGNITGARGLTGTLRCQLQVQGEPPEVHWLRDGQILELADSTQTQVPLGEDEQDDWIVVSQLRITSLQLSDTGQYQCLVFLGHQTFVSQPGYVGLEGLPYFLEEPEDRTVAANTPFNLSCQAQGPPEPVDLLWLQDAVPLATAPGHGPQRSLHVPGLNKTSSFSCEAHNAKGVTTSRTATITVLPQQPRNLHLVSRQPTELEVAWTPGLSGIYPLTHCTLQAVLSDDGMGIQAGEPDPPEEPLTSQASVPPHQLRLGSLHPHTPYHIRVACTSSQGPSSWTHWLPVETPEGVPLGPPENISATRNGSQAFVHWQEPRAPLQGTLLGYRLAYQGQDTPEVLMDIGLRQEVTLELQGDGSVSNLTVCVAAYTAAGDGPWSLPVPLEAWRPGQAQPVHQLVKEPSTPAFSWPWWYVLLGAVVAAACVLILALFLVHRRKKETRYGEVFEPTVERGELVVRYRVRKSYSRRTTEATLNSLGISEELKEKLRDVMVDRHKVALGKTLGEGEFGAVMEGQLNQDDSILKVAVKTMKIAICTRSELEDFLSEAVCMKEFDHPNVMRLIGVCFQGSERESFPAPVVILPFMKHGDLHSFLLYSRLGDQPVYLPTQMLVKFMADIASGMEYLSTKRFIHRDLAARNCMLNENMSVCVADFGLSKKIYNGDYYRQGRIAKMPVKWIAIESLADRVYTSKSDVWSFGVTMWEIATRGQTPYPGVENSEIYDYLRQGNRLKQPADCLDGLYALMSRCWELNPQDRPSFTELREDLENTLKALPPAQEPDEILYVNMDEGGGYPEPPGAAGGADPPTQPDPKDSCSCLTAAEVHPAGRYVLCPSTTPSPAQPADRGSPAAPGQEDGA
To be noted: 10 µM, n=1; kinase AXL; read-out: Percent inhibition AXL.
Text: as §1

Experiment [12] has as its target T12, PTK2B (Homo sapiens, UniProt Q14289).
T12 construct: purchased DiscoverX (KINOMEscan)
To be noted: n=1, read-out: Percent inhibition, PTK2B.

Experiment [13] deals with T13, PAK4 (Homo sapiens, UniProt O96013).
T13 construct: purchased DiscoverX (KINOMEscan)
T13 sequence (O96013 whole entry): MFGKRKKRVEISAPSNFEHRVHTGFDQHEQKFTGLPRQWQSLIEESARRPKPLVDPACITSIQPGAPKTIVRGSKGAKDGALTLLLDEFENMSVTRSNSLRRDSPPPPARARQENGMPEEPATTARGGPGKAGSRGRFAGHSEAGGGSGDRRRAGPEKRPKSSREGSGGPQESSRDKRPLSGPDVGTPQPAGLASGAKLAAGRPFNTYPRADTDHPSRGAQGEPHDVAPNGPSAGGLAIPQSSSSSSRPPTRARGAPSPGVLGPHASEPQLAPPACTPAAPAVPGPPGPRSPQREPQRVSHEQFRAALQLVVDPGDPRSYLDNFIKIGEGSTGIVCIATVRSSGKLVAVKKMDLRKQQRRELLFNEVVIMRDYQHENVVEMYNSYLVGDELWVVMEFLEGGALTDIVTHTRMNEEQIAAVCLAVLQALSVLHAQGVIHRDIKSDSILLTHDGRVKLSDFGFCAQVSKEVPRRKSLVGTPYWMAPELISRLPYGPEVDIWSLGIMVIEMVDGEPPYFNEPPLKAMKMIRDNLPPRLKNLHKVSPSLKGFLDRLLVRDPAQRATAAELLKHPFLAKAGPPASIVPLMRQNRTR
The conditions noted are these: n=1, read-out: Percent inhibition, PAK4.

Setting [14] is: 10 µM, n=1, kinase CSNK1D, read-out: Percent inhibition CSNK1D.
The mark [15] stands for this setting: 10 µM, n=1, kinase JAK1(Kin.Dom.1), read-out: Percent inhibition JAK1(Kin.Dom.1).
The mark [16] stands for this setting: 10 µM, n=1, kinase CLK2, read-out: Percent inhibition CLK2.
The mark [17] stands for this setting: KINOMEscan, 10 µM, n=1, read-out: Percent inhibition, PDGFRA.
Where [18] appears, read: 10 µM, n=1, kinase CLK1, read-out: Percent inhibition CLK1.

Structures are written as SMILES. Like-named read-outs stand apart in the source and are kept apart here. Bounds are passed on as bounds.

T5 sequence (P49760 whole entry): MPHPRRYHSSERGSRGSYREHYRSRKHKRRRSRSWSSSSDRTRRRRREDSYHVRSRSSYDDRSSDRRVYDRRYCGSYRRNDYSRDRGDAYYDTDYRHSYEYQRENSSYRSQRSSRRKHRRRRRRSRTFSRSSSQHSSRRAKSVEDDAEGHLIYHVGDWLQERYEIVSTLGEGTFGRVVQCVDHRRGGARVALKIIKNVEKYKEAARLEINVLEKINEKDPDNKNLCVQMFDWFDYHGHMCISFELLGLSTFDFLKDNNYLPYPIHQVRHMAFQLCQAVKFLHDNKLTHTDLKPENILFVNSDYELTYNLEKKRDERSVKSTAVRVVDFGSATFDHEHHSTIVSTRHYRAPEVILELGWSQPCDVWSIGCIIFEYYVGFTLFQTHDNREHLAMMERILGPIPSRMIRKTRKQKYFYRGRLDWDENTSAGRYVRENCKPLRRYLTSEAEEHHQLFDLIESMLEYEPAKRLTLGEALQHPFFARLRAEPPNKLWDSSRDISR
T4 sequence (P23458 583-855 limits assumed): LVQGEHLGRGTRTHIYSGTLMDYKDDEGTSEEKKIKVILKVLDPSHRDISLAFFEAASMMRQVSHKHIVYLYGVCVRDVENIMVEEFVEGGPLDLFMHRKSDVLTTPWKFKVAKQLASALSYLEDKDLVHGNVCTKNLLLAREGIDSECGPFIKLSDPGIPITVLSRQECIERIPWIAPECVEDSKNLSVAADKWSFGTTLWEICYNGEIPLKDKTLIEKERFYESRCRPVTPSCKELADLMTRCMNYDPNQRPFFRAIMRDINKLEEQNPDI
T10 sequence (P49759 whole entry): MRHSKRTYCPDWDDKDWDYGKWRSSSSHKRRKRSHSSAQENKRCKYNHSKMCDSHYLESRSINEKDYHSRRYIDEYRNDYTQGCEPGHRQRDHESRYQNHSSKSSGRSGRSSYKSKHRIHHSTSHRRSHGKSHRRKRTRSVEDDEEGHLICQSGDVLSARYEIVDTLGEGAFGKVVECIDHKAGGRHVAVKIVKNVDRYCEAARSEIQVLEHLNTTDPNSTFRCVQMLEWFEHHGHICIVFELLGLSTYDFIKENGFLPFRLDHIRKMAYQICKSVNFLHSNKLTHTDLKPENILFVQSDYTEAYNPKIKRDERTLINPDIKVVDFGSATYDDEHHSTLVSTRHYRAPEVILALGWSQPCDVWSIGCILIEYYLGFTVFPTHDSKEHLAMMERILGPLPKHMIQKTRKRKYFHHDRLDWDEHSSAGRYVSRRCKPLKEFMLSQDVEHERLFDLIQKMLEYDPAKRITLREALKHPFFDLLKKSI
T6 sequence (P16234 24-1089): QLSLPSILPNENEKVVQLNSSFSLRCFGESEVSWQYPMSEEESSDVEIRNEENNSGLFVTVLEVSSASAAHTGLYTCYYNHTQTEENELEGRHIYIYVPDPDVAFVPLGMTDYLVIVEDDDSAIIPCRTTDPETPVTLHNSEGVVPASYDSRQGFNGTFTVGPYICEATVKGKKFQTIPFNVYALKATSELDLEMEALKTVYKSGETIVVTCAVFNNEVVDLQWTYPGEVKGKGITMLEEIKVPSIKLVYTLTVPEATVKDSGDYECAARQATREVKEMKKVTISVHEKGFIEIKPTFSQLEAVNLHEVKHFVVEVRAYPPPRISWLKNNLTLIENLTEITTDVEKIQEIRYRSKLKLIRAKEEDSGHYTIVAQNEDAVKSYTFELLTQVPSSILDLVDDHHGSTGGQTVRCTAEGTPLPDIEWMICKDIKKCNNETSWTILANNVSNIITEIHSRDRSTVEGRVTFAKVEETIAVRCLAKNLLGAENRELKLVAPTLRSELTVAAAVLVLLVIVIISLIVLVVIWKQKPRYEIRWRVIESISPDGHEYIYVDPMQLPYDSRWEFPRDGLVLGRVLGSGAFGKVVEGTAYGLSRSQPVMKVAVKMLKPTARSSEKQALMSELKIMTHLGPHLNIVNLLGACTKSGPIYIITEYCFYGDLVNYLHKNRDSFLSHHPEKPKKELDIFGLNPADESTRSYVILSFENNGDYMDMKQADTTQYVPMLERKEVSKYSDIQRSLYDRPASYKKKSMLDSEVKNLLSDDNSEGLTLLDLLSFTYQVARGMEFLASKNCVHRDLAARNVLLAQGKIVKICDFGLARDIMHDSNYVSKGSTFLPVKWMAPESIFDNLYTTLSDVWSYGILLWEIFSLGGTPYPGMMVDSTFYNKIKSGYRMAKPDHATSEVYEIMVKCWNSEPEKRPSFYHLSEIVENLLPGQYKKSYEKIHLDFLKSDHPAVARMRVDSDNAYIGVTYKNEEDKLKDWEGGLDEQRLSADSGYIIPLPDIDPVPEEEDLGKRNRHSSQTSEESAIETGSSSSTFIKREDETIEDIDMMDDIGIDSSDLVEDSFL
T1 sequence (P48730 whole entry): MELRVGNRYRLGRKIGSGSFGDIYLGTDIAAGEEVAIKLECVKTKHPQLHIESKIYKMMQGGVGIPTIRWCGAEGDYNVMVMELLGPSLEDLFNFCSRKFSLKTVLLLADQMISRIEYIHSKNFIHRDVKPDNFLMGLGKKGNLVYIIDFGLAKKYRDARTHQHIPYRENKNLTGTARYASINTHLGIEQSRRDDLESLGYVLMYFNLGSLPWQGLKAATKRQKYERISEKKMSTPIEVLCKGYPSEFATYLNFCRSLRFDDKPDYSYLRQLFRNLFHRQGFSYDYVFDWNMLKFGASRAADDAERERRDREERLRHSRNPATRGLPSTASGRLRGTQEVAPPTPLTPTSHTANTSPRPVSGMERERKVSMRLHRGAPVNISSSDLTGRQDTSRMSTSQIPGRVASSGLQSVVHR

Broadly, the inhibition is the share of the control response that was lost under treatment. Consider `Nc1ncc2c(-c3ccncc3)c[nH]c2n1` [Compound 11], for which the inhibition at 10 µM in experiment [1] (10 μM, n = 1, read-out: percent inhibition CSNK1D) is no less than 99%; in experiment [1] (setting [14]), 99.9%; in [2] it was 0%; in [3], 0%; in experiment [4] (10 μM, n = 1, read-out: percent inhibition JAK1(JH2)), no less than 99%; in experiment [4] (setting [15]) it was 99%. Further, the inhibition at 10 µM is no less than 99% in [5] (10 μM, n = 1, read-out: percent inhibition CLK2); 99.9% in experiment [5] (setting [16]); no less than 99% in experiment [6] (10 μM, n = 1, read-out: percent inhibition PDGFRα); 100% in experiment [6] (setting [17]); 0% in experiment [7]; 79.4% in experiment [8]. The inhibition at 10 µM in experiment [9] was 0%; in experiment [10] (10 μM, n = 1, read-out: percent inhibition CLK1), no less than 99%; in [10] (setting [18]) it was 99.2%; in [11], 0%; in experiment [12], 0%; in experiment [13] it was 0%.

With `COc1cc(Nc2nccc(-c3sc(N)nc3-c3cccc(NC(=O)c4c(F)cccc4F)c3)n2)cc(OC)c1OC` [Compound 7], the inhibition at 10 µM in [1] (setting [14]) was determined as 76.3%; in experiment [2], 0%; in experiment [3] it was 0%; in [4] (setting [15]), 0%; in [5] (setting [16]), 0%; in [6] (setting [17]) it was 100%. Further, the inhibition at 10 µM in experiment [7] came out at 99.2%; in experiment [8] it was 92.8%; in experiment [9], 99.5%; in [10] (setting [18]), 0%; in experiment [11], 99%; in [12], 99.9%. For the same compound, in [13], the inhibition at 10 µM came out at 0%.
